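Cells were grown in 96-well plates and exposed to each compound for 48 hours at five concentrations; endpoints were interpolated linearly between bracketing concentrations, or set to the highest concentration if not reached. GI50: concentration for 50% inhibition of growth. At the TGI there is no net growth.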 Bounds are passed on as bounds.

Among the data in PubChem BioAssay (NCI) are TGI and GI50 values, retold here.

Test systems include SR leukemia; CAKI-1 renal; ACHN renal; KM12 colon; IGROV1 ovarian; NCI-H226 lung; SK-MEL-5 melanoma; TK-10 renal; U251 CNS.
Holding throughout (assay): growth of human tumour cells (NCI), 48 h

For `CC(=O)Nc1ccc(C2[C@H]3C(=O)N(c4ccc(Cc5ccc(N6C(=O)[C@@H]7ON(c8ccccc8)C(c8ccc(NC(C)=O)cc8)[C@@H]7C6=O)cc5)cc4)C(=O)[C@H]3ON2c2ccccc2)cc1` (stereo partly drawn), the TGI in the experiment with SR leukemia, in the experiment with CAKI-1 renal, with ACHN renal, in the experiment with KM12 colon, in the experiment with IGROV1 ovarian and in the experiment with NCI-H226 lung was above 100 µM throughout. For the same compound, the TGI in the experiment on SK-MEL-5 melanoma, in the experiment on TK-10 renal and in the experiment with U251 CNS was above 100 µM in each case.
For `COC(=O)C1=C(O)C(O)=C(C(=O)OC)C1`, the TGI in the experiment on CAKI-1 renal, with ACHN renal, with KM12 colon, in the experiment with IGROV1 ovarian, in the experiment with NCI-H226 lung and in the experiment on SK-MEL-5 melanoma was above 100 µM throughout. The TGI with TK-10 renal and with U251 CNS was above 100 µM in each case.
Consider `CC1NOC(=O)C1N=Nc1ccccc1Cl` (stereo not drawn), for which the TGI in the experiment with CAKI-1 renal is above 100 µM; in the experiment with ACHN renal it was above 100 µM; in the experiment on KM12 colon, above 100 µM; in the experiment on IGROV1 ovarian, above 100 µM; in the experiment on SK-MEL-5 melanoma, 32.9 µM; in the experiment on TK-10 renal, above 100 µM. The same compound gave a TGI in the experiment on U251 CNS above 100 µM.
For the compound `O=S1(=O)C[C@@H](O)[C@H](O)CS1`, the TGI with SR leukemia, in the experiment on CAKI-1 renal, in the experiment on ACHN renal, with KM12 colon, with IGROV1 ovarian and in the experiment with NCI-H226 lung was above 100 µM each time. For the same compound, the TGI in the experiment on SK-MEL-5 melanoma, in the experiment on TK-10 renal and in the experiment on U251 CNS was above 100 µM throughout.
Take `ON=C1CCC(c2ccccc2)CC1` (stereo not drawn): the TGI in the experiment with CAKI-1 renal, with ACHN renal, with KM12 colon, in the experiment on IGROV1 ovarian, in the experiment on NCI-H226 lung and in the experiment with SK-MEL-5 melanoma was above 100 µM each time. Moreover, the TGI with TK-10 renal and in the experiment on U251 CNS was above 100 µM each time.
In the case of `CCOC(=O)c1ccc(N2C(=O)/C(=C\OC)c3ccccc3C2=O)cc1`, the TGI in the experiment with SR leukemia, with CAKI-1 renal, in the experiment with ACHN renal, in the experiment with KM12 colon, in the experiment with IGROV1 ovarian and in the experiment on NCI-H226 lung was above 100 µM throughout. In addition, the TGI in the experiment on SK-MEL-5 melanoma, in the experiment on TK-10 renal and in the experiment with U251 CNS was above 100 µM throughout.
As to `CC(C(=O)Oc1ccc2ccccc2c1-c1c(O)ccc2ccccc12)c1ccccc1` (stereo not drawn), the TGI with CAKI-1 renal was 24 µM; with ACHN renal it was 26.6 µM; in the experiment with KM12 colon, 26.1 µM; in the experiment with IGROV1 ovarian, 34.9 µM; in the experiment with NCI-H226 lung, 26.5 µM; in the experiment with SK-MEL-5 melanoma, 26.8 µM. Further, the TGI in the experiment with TK-10 renal is 32.8 µM; with U251 CNS, 28.7 µM.
Consider `O=C([CH-]C(=O)c1ccccc1)c1ccccc1.O=C([CH-]C(=O)c1ccccc1)c1ccccc1.[Nd+3].[OH-].[OH3+]`, for which the GI50 was 13.6 µM in the experiment on CAKI-1 renal; 10.1 µM in the experiment on ACHN renal; 6.27 µM in the experiment on KM12 colon; 11.5 µM in the experiment with IGROV1 ovarian; 1.94 µM in the experiment on NCI-H226 lung; 3.94 µM with SK-MEL-5 melanoma. Further, the GI50 with TK-10 renal is 26.4 µM; with U251 CNS it was 7.13 µM. Further, the TGI amounted to 40.9 µM in the experiment with CAKI-1 renal; 30.1 µM in the experiment on ACHN renal; 49.6 µM in the experiment with KM12 colon; 61.2 µM with IGROV1 ovarian; 8.28 µM with NCI-H226 lung; 17.2 µM in the experiment with SK-MEL-5 melanoma. Also, the TGI is above 100 µM in the experiment with TK-10 renal and 40.3 µM in the experiment on U251 CNS.
Consider `O=C(c1ccccc1)c1c(C(=O)c2ccccc2)c(-c2ccccc2)c2c(-c3ccccc3)sc(-c3ccccc3)c2c1-c1ccccc1`, for which the TGI in the experiment with CAKI-1 renal, in the experiment on ACHN renal, in the experiment with KM12 colon, in the experiment with IGROV1 ovarian, in the experiment with NCI-H226 lung and in the experiment on SK-MEL-5 melanoma was above 100 µM in each case. The TGI in the experiment with TK-10 renal and in the experiment on U251 CNS was above 100 µM throughout.
`Cc1c2cc[nH]c(=O)c2cc2c(=O)c3cnccc3[nH]c12`: the TGI in the experiment with CAKI-1 renal, in the experiment with ACHN renal, in the experiment on KM12 colon, in the experiment on IGROV1 ovarian, in the experiment with NCI-H226 lung and in the experiment with SK-MEL-5 melanoma was above 100 µM each time. The TGI in the experiment with TK-10 renal and in the experiment on U251 CNS was above 100 µM each time.
Consider `CCOC(=O)C(C)c1cc(C2(C)OCCO2)c(C)o1` (stereo not drawn), for which the TGI in the experiment with ACHN renal, in the experiment on KM12 colon, in the experiment with IGROV1 ovarian, in the experiment with SK-MEL-5 melanoma, in the experiment with TK-10 renal and with U251 CNS was above 100 µM each time.
`CN(c1ccccc1)C(c1ccccc1)C(O)c1ccccc1` (stereo not drawn): the TGI was found to be 49.8 µM with SR leukemia; 47.7 µM in the experiment with CAKI-1 renal; 54.4 µM in the experiment with ACHN renal; 34.4 µM in the experiment with KM12 colon; 45.4 µM in the experiment with IGROV1 ovarian; 34.7 µM in the experiment with SK-MEL-5 melanoma. Also, the TGI in the experiment on TK-10 renal came out at 57.1 µM; with U251 CNS, 33.2 µM.
As for `O=c1cc2ccccc2nn1-c1ccccc1Cl`, the TGI in the experiment on CAKI-1 renal, in the experiment with ACHN renal, in the experiment with KM12 colon, in the experiment with IGROV1 ovarian, with NCI-H226 lung and in the experiment with SK-MEL-5 melanoma was above 100 µM in each case. Further, the TGI with TK-10 renal and in the experiment on U251 CNS was above 100 µM throughout.
In the case of `O=C1C(=O)N(c2ccc(Cl)c(Cl)c2)C(=O)C(=O)C1c1nc2ccccc2o1`, the TGI in the experiment on SR leukemia is 86 µM; in the experiment on CAKI-1 renal, above 100 µM; in the experiment on ACHN renal, above 100 µM; with KM12 colon, above 100 µM; with IGROV1 ovarian, above 100 µM; in the experiment with NCI-H226 lung, above 100 µM. Moreover, the TGI with TK-10 renal is above 100 µM; in the experiment on U251 CNS, 85.6 µM.
As for `Cc1cc(C)nc(Nc2nc3ccc([N+](=O)[O-])cc3[nH]2)n1`, the TGI in the experiment on SR leukemia, in the experiment on CAKI-1 renal, with ACHN renal, in the experiment with KM12 colon, in the experiment with IGROV1 ovarian and with NCI-H226 lung was above 100 µM in each case. Besides, the TGI in the experiment with SK-MEL-5 melanoma, in the experiment on TK-10 renal and in the experiment on U251 CNS was above 100 µM each time.
For the compound `CS(=O)c1ccc(COP(N)(=O)N(CCCl)CCCl)cc1` (stereo not drawn), the TGI in the experiment on SR leukemia, with CAKI-1 renal, in the experiment on ACHN renal, with KM12 colon, with IGROV1 ovarian and with NCI-H226 lung was above 100 µM each time. For the same compound, the TGI in the experiment with SK-MEL-5 melanoma, in the experiment with TK-10 renal and in the experiment on U251 CNS was above 100 µM each time.
